Biological target: T1, glucokinase (residues 12-465 of the human enzyme) (Homo sapiens, UniProt P35557)
T1 construct: FLAG (vector pFLAG-CTC) (C); made in house; host or cells: E. coli DH10b-T1r (pFLAG-CTC)
T1 sequence (P35557 12-465): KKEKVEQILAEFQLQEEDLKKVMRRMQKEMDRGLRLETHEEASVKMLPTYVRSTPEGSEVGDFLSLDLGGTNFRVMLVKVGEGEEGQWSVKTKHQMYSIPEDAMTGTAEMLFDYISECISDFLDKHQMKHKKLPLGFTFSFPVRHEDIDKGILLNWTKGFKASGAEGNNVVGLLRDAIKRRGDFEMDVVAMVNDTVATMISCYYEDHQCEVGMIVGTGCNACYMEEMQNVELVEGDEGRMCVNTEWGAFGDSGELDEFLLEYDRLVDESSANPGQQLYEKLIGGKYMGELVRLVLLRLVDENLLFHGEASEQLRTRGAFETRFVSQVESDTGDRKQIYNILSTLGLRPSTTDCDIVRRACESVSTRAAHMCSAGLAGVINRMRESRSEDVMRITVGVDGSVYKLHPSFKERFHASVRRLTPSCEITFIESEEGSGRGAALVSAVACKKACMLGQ
Assay: Measurement of GK activation value (ATP/glucose, luciferase luminescence)
Type: biochemical
Conditions: values given as ranges; for EC50: Kact = concentration that displays 50% of the maximal increase in GK activity, room temperature, 60 min, read-out: pKact; for Emax: calculated maximal gain in GK enzyme activity at a saturating concentration of the compound, read-out: % ACTmaxc
Text: Purified glucokinase may be obtained as follows. DNA encoding residues 12-465 of the full-length sequence of the human enzyme may be amplified by PCR and cloned into the HindIII and EcoRI sites of pFLAG-CTC (Sigma). SEQ ID No. 5 corresponds to residues 12-465 of glucokinase.
The expression of recombinant glucokinase protein may be carried out by transformation and growth of DH10b-T1r E. coli cells incorporating the (pFLAG-CTC) plasmid in LB media. Protein expression can be induced in this system by the addition of IPTG to the culture medium.
Recombinant protein may be isolated from cellular extracts by passage over Sepharose Q Fast Flow resin (Pharmacia). This partially purified GK extract may then be further purified by a second passage over Poros HQ10 (Applied Biosystems). The purity of GK may be determined on denaturing SDS-PAGE gel. Purified GK may then be concentrated to a final concentration of 20.0 mg/ml. After flash freezing in liquid nitrogen, the proteins can be stored at −78° C. in a buffer containing 25 mM TRIS-HCl pH 7.6, 50 mM NaCl, and 0.5 mM TCEP.
The assay reaction may be initiated as follows: 4 μl of substrate mixture (12.5 μM ATP and 12.5 mM Glucose) was added to each well of the plate, followed by the addition of 2 μl of activator (2 fold serial dilutions for 11 data points for each activator) containing 10% DMSO. 4 μL of 1.25 nM GK solution may be added to initiate the reaction. The reaction mixture may then be incubated at room temperature for 60 min, and quenched and developed by addition of 10 μL of luciferase reagent. Luminescence intensities of the resulting reaction mixtures may be measured after a 10 min incubation at room temperature. The luminescence intensity may be measured by using the Analyst HT from LJL Biosystems.
pKact and % ACTmax values may be calculated by non-linear curve fitting of the compound concentrations and luminescence intensities to a standard inhibition/activation equation.

EC50 [nM] | Emax [%] | SMILES
398 to 1000 | 20 to 29.9 | Brc1cnc2[nH]c(-c3ccccc3Oc3cccnc3)nc2c1 [Example 244, 6-bromo-2-(2-(pyridin-3-yloxy)phenyl)-3H-imidazo[4,5-b]pyridine]
< 100 | 30 to 49.9 | CC(C)Oc1cc(OCCc2ccccc2)cc(-c2nc3cccnc3[nH]2)c1 [Example 161, 2-(3-isopropoxy-5-phenethoxyphenyl)-3H-imidazo[4,5-b]pyridine]
< 100 | > 70 | Cn1ccnc1COc1cc(OCc2ccccc2F)cc(-c2nc3cccnc3[nH]2)c1 [Example 165, 2-(3-(2-fluorobenzyloxy)-5-((1-methyl-1H-imidazol-2yl)methoxy)phenyl)-3H-imidazo[4,5-b]pyridine]
398 to 1000 | > 70 | COC[C@H](C)Oc1cc(Oc2ccc(S(C)(=O)=O)cc2)cc(-c2nc3cccnc3[nH]2)c1 [Example 181, (S)-2-(3-(1-methoxypropan-2-yloxy)-5-(4-(methylsulfonyl)phenoxy)phenyl)-3H-imidazo[4,5-b]pyridine]
126 to 316 | 50 to 69.9 | Cn1ccnc1COc1cc(OCCc2ccsc2)cc(-c2nc3cc(Br)cnc3[nH]2)c1 [Example 164, 6-bromo-2-(3-((1-methyl-1H-imidazol-2-yl)methoxy)-5-(2-(thiophen-3-yl)ethoxy)phenyl)-3H-imidazo[4,5-b]pyridine]
126 to 316 | > 70 | Cn1ccnc1COc1cc(OCc2ccccc2)cc(-c2nc3cccnc3[nH]2)c1 [Example 162, 2-(3-(benzyloxy)-5-((1-methyl-1H-imidazol-2-yl)methoxy)phenyl)-3H-imidazo[4,5-b]pyridine]
398 to 1000 | 20 to 29.9 | COC[C@H](C)Oc1cc(OCc2ccccc2F)cc(-c2nc3cc(CCCO)cnc3[nH]2)c1 [Example 177, (S)-3-(2-(3-(2-fluorobenzyloxy)-5-(1-methoxypropan-2-yloxy)phenyl)-3H-imidazo[4,5-b]pyridin-6-yl)propan-1-ol]
126 to 316 | > 70 | Cn1ccnc1COc1cc(OCc2ccccc2F)cc(-c2nc3cc(CCCO)cnc3[nH]2)c1 [Example 168, 3-(2-(3-(2-fluorobenzyloxy)-5-((1-methyl-1H-imidazol-2-yl)methoxy)phenyl)-3H-imidazo[4,5-]pyridin-6-yl)propan-1-ol]
126 to 316 | 20 to 29.9 | CC(C)Oc1cc(OCc2ccccc2)cc(-c2nc3cccnc3[nH]2)c1 [Example 158, 2-(3-(benzyloxy)-5-isopropoxyphenyl)-3H-imidazo[4,5-b]pyridine]
126 to 316 | 30 to 49.9 | COC[C@@H](C)Oc1cc(OCc2ccccc2F)cc(-c2nc3cc(Br)cnc3[nH]2)c1 [Example 174, (R)-6-bromo-2-(3-(2-fluorobenzyloxy)-5-(1-methoxypropan-2-yloxy)phenyl)-3H-imidazo[4,5-b]pyridine]

The remaining lines, values behind:

SMILES | EC50 [nM] | Emax [%]
COc1ccc(OCc2ccccc2)cc1-c1nc2cc(Br)cnc2[nH]1 [Example 243, 2-(5-(benzyloxy)-2-methoxyphenyl)-6-bromo-3H-imidazo[4,5-b]pyridine] | 126 to 316 | 30 to 49.9
CC(C)Oc1ccc(/C=C/c2ccccc2)cc1-c1nc2cccnc2[nH]1 [Example 196, (E)-2-(2-isopropoxy-5-styrylphenyl)-3H-imidazo[4,5-b]pyridine] | 398 to 1000 | > 70
Fc1ccccc1COc1cc(Oc2ncccn2)cc(-c2nc3cc(Br)cnc3[nH]2)c1 [Example 245, 6-bromo-2-(3-(2-fluorobenzyloxy)-5-(pyrimidin-2-yloxy)phenyl)-3H-imidazo[4,5-b]pyridine] | 398 to 1000 | > 70
COC[C@@H](C)Oc1cc(OCc2ccccc2F)cc(-c2nc3cccnc3[nH]2)c1 [Example 172, (R)-2-(3-(2-fluorobenzyloxy)-5-(1-methoxypropan-2-yloxy)phenyl)-3H-imidazo[4,5-b]pyridine] | 398 to 1000 | 50 to 69.9
Cn1ccnc1COc1cc(OCc2ccccc2F)cc(-c2nc3cc(Cl)cnc3[nH]2)c1 [Example 166, 6-chloro-2-(3-(2-fluorobenzyloxy)-5-((1-methyl-1H-imidazol-2-yl)methoxy)phenyl)-3H-imidazo[4,5-b]pyridine] | < 100 | > 70
Cn1ccnc1CNc1cc(NS(=O)(=O)c2ccccc2)cc(-c2nc3cc(Br)cnc3[nH]2)c1 [Example 213, N-(3-(6-bromo-3H-imidazo[4,5-b]pyridin-2-yl)-5-((1-methyl-1H-imidazol-2-yl)methylamino)phenyl)benzenesulfonamide] | 126 to 316 | 30 to 49.9
COc1ccc(/C=C/c2ccncc2)cc1-c1nc2cccnc2[nH]1 [Example 246, (E)-2-(2-methoxy-5-(2-(pyridin-4-yl)vinyl)phenyl)-3H-imidazo[4,5-b]pyridine] | 398 to 1000 | 30 to 49.9
Brc1cnc2[nH]c(-c3ccccc3Oc3ccccc3)nc2c1 [Example 188, 6-bromo-2-(2-phenoxyphenyl)-3H-imidazo[4,5-b]pyridine] | 398 to 1000 | 30 to 49.9
Cn1ccnc1COc1cc(OCc2ccccc2F)cc(-c2nc3cc(Br)cnc3[nH]2)c1 [Example 167, 6-bromo-2-(3-(2-fluorobenzyloxy)-5-((1-methyl-1H-imidazol-2-yl)methoxy)phenyl)-3H-imidazo[4,5-b]pyridine] | < 100 | > 70
Cn1ccnc1CNc1cc(NS(C)(=O)=O)cc(-c2nc3cc(Br)cnc3[nH]2)c1 [Example 214, N-(3-(6-bromo-3H-imidazo[4,5-b]pyridin-2-yl)-5-((1-methyl-1H-imidazol-2-yl)methylamino)phenyl)methanesulfonamide] | 398 to 1000 | 30 to 49.9
COC[C@@H](C)Oc1cc(OCc2ccccc2F)cc(-c2nc3cc(Cl)cnc3[nH]2)c1 [Example 173, (R)-6-chloro-2-(3-(2-fluorobenzyloxy)-5-(1-methoxypropan-2-yloxy)phenyl)-3H-imidazo[4,5-b]pyridine] | 126 to 316 | 50 to 69.9
Cn1ccnc1COc1cc(OCc2ccccc2)cc(-c2nc3cc(Br)cnc3[nH]2)c1 [Example 163, 2-(3-(benzyloxy)-5-((1-methyl-1H-imidazol-2-yl)methoxy)phenyl)-6-bromo-3H-imidazo[4,5-b]pyridine] | < 100 | 50 to 69.9
CC(C)Oc1cc(OCCCc2ccccc2)cc(-c2nc3cccnc3[nH]2)c1 [Example 159, 2-(3-isopropoxy-5-(3-phenylpropoxy)phenyl)-3H-imidazo[4,5-b]pyridine] | 398 to 1000 | 20 to 29.9
CC(C)Oc1ccc(OCc2ccccc2)cc1-c1nc2cc(-c3cccc(F)c3)cnc2[nH]1 [Example 71, 2-[5-(benzyloxy)-2-isopropoxyphenyl]-6-(3-fluorophenyl)-3H-imidazo[4,5-b]pyridine] | 398 to 1000 | 20 to 29.9
